# Values of other authors in patent publication US20110071172A1, “SUBSTITUTED QUINAZOLINES AS BLOOD PLATELET LOWERING AGENTS” (Shire LLC, priority 2008, published 2011).
# How the values were obtained:
# [1] = system: human megakaryocytopoiesis
# [2] = system: human phosphodiesterase 111 (PDE III); conditions: for IC50: read-out: IC50, PDE III inhibition
# [3] = system: erythroid or myelomonocytic differentiation; conditions: stimulated by erythropoietin or granulocyte-macrophage colony-stimulating factor
potency as PDE III inhibitor relative to anagrelide ([2]; ratio versus anagrelide),half-life (typical),exposure in vivo relative to parent drug (typical exposures versus anagrelide),"IC50 ([1]; estimated, in vitro, dose-dependent, read-out: IC50, inhibition of TPO-induced megakaryocytopoiesis)",first pass effect (in vivo),SMILES,potency in inhibition of megakaryocytopoiesis relative to parent drug ([1]; versus anagrelide),IC50 [2],effect on erythroid or myelomonocytic differentiation [3]
over 40 fold,2.5 h,2-3 fold,,,O=C1NC2=Nc3ccc(Cl)c(Cl)c3CN2C1O (stereo not drawn) [3-hydroxyanagrelide],no more potent than the parent drug,,
,,,,,Cc1[nH]c(=O)c(C#N)cc1-c1ccncc1 [milrinone],,170 to 350 nM,
,,,~26 nM,> 50%,"O=C1CN2Cc3c(ccc(Cl)c3Cl)N=C2N1 [Anagrelide, 6,7-dichloro-1,5-dihydroimidazo[2,1-b]-quinazolin-2(3H)-one]",,~29 nM,does not affect
